In publication PMC1971073, “Comparative genomics of bacterial and plant folate synthesis and salvage: predictions and validations” (BMC Genomics, 2007):

Target: T1, Arabidopsis ADCS (PabAa-PabAb) (Arabidopsis thaliana, UniProt Q8LPN3)
T1 construct: bifunctional PabAa-PabAb ADC synthase in pLOI707HE; extract of E. coli BN1163 (pabA pabB mutant)
T1 sequence (Q8LPN3 46-919): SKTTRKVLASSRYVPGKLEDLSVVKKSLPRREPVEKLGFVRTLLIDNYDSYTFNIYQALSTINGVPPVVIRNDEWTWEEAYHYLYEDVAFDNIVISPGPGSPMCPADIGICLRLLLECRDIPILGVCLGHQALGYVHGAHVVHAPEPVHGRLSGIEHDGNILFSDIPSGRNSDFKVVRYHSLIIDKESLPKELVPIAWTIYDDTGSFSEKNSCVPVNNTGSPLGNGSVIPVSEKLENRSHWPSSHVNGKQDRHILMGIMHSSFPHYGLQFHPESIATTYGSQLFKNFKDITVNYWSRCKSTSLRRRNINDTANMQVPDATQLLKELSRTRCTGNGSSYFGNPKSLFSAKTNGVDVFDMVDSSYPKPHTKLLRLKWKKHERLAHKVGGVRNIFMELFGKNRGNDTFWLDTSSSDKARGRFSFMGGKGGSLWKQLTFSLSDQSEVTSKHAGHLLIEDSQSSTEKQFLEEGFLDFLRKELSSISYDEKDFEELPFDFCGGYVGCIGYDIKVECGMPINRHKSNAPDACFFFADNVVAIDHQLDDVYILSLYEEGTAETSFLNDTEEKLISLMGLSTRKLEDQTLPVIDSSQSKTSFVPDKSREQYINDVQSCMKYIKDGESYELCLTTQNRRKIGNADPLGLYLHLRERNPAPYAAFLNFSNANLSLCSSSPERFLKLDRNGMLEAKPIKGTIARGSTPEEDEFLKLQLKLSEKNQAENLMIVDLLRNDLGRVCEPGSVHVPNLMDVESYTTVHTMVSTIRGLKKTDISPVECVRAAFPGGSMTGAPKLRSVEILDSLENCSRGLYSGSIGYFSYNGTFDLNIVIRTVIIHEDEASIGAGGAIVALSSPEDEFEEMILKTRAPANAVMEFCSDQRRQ
Assay: pABA formation in cell extract, coupled to E. coli PabC (ADC lyase), HPLC with fluorescence detection
Format: biochemical
Conditions: E. coli PabC extract added, 37 °C, 1 h

Structure (SMILES) | pABA formation in cell extract, coupled to E. coli PabC (ADC lyase), HPLC with f (glutamine as amino donor) | pABA formation in cell extract, coupled to E. coli PabC (ADC lyase), HPLC with f (chorismate as co-substrate)
C=C(O[C@@H]1C=C(C(=O)O)C=C[C@H]1O)C(=O)O [chorismate] | Arabidopsis PabAa-PabAb formed pABA only if PabAc was added | 
NC(=O)CC[C@H](N)C(=O)O [glutamine] |  | Arabidopsis PabAa-PabAb formed pABA only if PabAc was added
